Assay results from patent US10464920B2, “Vicinal primary diamines associated with metal and/or free radical chelation motifs, and active against carbonyl and oxidative stress, and use thereof” (UNIVERSITE AMIENS PICARDIE JULES VERNE, priority 2015, dated 2019).

Columns and labels:
[1] = ORACFL test (Oxygen Radical Absorbance Capacity) using fluorescein/AAPH; format: physicochemical; conditions: compounds at 10 μM; for ORACFL: mean ± SEM of three independent experiments in triplicate
Protocol: The antioxidant properties of the compounds according to the invention were evaluated using a ORACFL test using fluorescein (J. Agric. Food Chem., 2004 52, 48-54; J. Agric. Food Chem., 2005, 53, 4290-4302). As such, peroxide radicals, generated in the presence of AAPH (2,2′-azobis(2-methylpropionamidine)dihydrochloride) at 37° C., react with this fluorescent sensor in order to give a non-fluorescent product. The protective effect of the test compounds can then be determined by following the decay curve of the fluorescence of the fluorescein over time and be measuring the area under the curve (AUC) of the sample in relation to that of a control corresponding to an absence of antioxidant.
The trolox (6-hydroxy-2,5,7,8-tetramethylchroman-2-carboxylic acid), a water-soluble analogue of vitamin E, is used as a standard for calculating the antioxidant capacity (ORACFL) of the compounds tested at 10 μM, expressed in […] of tested compound. This value is as such obtained using the straight-line calibration equation giving the area under the curve according to the various concentrations of trolox (Bioorg. Med. Chem., 2015, 23, 1135-1148) (FIG. 11).
A solution of fluorescein (FL) (12 nM; 150 μL) is introduced into a black 96-well plate (Dutscher, Brumath, France). The compounds to be tested (1-20 μM; 25 μL) or trolox (1-50 μM; 25 μL) dissolved in D-PBS are added into each well. After equilibration of the plate during an incubation at 37° C. for a minimum of 30 min, the radical reactions are initiated using a solution of AAPH prepared extemporaneously (30 mM; 25 μL). The fluorescence (λEx: 485 nm; λEm: 520 nm) is measured every 90 seconds for 60 cycles using a temperature-controlled Tecan Infinite® 200 PRO microplate reader (measurements taken in triplicates during three independent experiments).

[2] = system: murine endothelial brain cells (bEnd.3); assay: Cytotoxicity, cellular viability (CCK-8/WST-8) on bEnd.3; format: cell-based
Protocol: (§1) The cellular viability is evaluated by a colorimetric method based on the detection of the conversion of a salt of the tetrazolium (WST-8) by the metabolically active cells (CCK-8 kit, Sigma, Lyons, France) (Molecules, 2014, 19(8), 12048-12064; J. Pharmacol. Toxicol. Methods., 2007, 56(1), 58-62). Living cells have mitochondrial dehydrogenases that reduce the WST-8 (2-(2-methoxy-4-nitrophenyl)-3-(4-nitrophenyl)-5-(2,4-disulfophenyl)-2H-tetrazolium), monosodium salt) to formazan of an orange colour, which dissolves directly in the culture medium in the presence of 1-Methoxy PMS (1-methoxy-5-methylphenazinium methyl sulphate). After an incubation for 1 h at 37° C., the absorbance of the formazan is measured at 450 nm. The absorbance is directly proportional to the number of living cells.
(§2) Briefly, the cells are inoculated in 96-well plates at a rate of 5.10^3 cells per well in 100 μL of the suitable medium until subconfluence. The cells are then washed with D-PBS, then treated with various concentrations (10 μM, 100 μM) of the products to be tested in triplicates for 24 and 48 h. A positive control is carried out with 10% of DMSO. The CCK-8 (10 μL) solution is then added to each well for an incubation for 1 h at 37° C. The measurement of the absorbance is taken at 450 nm using a Perkin Elmer 2103 Envision® microplate reader.
(§3) The viability of the cells is expressed as a % of the control (untreated cells) by the mean±standard deviation of triplicates forming a representative experiment or of three independent experiments conducted in triplicate.

[3] = system: rat pheochromocytoma cells, treated as neuronal cells (PC12); assay: Cytotoxicity, cellular viability (CCK-8/WST-8) on PC12; format: cell-based
Protocol: as §1, §2, §3

[4] = system: human fibroblasts (MRC-5); assay: Cytotoxicity, cellular viability (CCK-8/WST-8) on MRC-5; format: cell-based
Protocol: as §1, §2, §3

[5] = system: low-density lipoproteins (LDLs); assay: Antiradical properties: inhibition of lipid peroxidation in AAPH-induced oxidation of LDLs; format: biochemical; conditions: high concentration (100 μM)
Protocol: The antiradical properties of the various compounds are determined by inhibition of the lipid peroxidation in the in vitro model of the oxidation of the low-density lipoproteins (LDLs) (Free Radic. Biol. Med., 1992, 13, 341-390). The lipid peroxidation is initiated by the attack by free radicals of a double bond of a polyunsaturated fatty acid present in the LDLs. […] Once initiated, the oxidation of the LDLs is a chain reaction of lipid peroxidation generated by the free radicals. The oxidation in vitro of the LDLs is induced at 37° C. by the adding of the water-soluble compound 2,2′-Azobis(2-methylpropionamidine)dihydrochloride (AAPH), which generates free radicals during the spontaneous thermal breakdown thereof
Briefly, the oxidation, carried out in a 96-well plate, is induced at 37° C. by adding 20 μL of a solution of AAPH at 2 mM in D-PBS at 160 μL of LDL (100 μg/mL) in the presence or absence of 20 μL of the various solutions of the compounds to be tested dissolved in D-PBS (0.1 to 100 μM in final concentrations). The LDLs alone without adding AAPH are used as a negative control. Each oxidation is carried out in double. During the oxidation, the formation of the conjugated dienes is followed by the measurement of the optical density at 234 nm every 10 minutes for 8 h at 37° C. using a temperature-controlled TECAN spectrophotometer. The vitamin E (α-tocopherol) which is a powerful antioxidant recognised in this in vitro model is used as a reference molecule (J. Nutr. Biochem., 2012, 23, 845-51).

[6] = Formation of adducts with MGO, kinetic study by HPLC; format: physicochemical; conditions: compound 10 mM, MGO 20 mM, 37° C., after 15 min of incubation
Protocol: The compounds to be tested are incubated at 37° C. in the presence of MGO or of MDA. A kinetic study aiming to report on the formation of adducts with the MGO or MDA is then carried out via HPLC analysis.
The compounds to be tested (30 μmol) are dissolved in PBS (1.5 mL). An aqueous solution (qsp 1.25 mL) of MGO at 40% in water (250 μmol) is then prepared and in parallel, MDA bis-(diOEt)-acetal (250 μmol) is set to react with a solution of HCl 1N (2 eq) in water (qsp 1.25 mL) for 1 h at room temperature. An aqueous solution of NaOH 0.05N is also required to neutralise the reaction medium (5 mL).
The solution of the compound to be tested (625 μL—final concentration in the medium=10 mM) is then set to react with the solution of MGO or of MDA prepared extemporaneously (125 μL—final concentration in the medium=20 mM) in the presence of NaOH 0.05 N (0.5 mL).
The various mixtures are then incubated in the oven at 37° C. for 24 h.
A sampling of each mixture (100 μL) is taken at regular intervals of time (0.25; 0.5; 1; 5 and 24 h) and stored at −20° C. in order to stop the reaction. After dilution in a MeCN/H2O 98:2 mixture at room temperature, the HPLC analysis is carried out on a Shimadzu LCMS-2020 apparatus (UV chromatogram at 190 nm and mass spectrum in positive electrospray ionisation mode (ESI+)) after separation on the Waters Acquity column using a gradient of solvents H2O+HCOOH 0.1%/MeCN+HCOOH 0.1% (98/2 for 2 min, then 55/45 for 2 min and 45/55 for 3 min) with a flow rate of 0.3 mL/min at 40° C. and an injection of volume of 1 (“detection mode: scan, interface voltage: tuning file, DL voltage: 100 V, Q-array DC: 40 V, Q-array RF: 40 V”). A blank is first of all carried out using a solution containing the reaction medium without scavenger. Then, a free scavenger solution at 10 mM is used as a negative control and the carnosine as a reference of the literature. The proportion of adducts formed with the MGO or MDA (generally, tR=4.1 to 6.8 min) is then measured in relation to the quantity of remaining free scavenger (generally, tR=0.8 to 4.6 min) after measurement of the area under the curve of the corresponding peaks on the UV spectrum (measurements taken for a representative sample).

[7] = MRC-5, 10 μM, 24 h of treatment
[8] = MRC-5, 10 μM, 48 h of treatment
[9] = MRC-5, 100 μM, 24 h of treatment
[10] = MRC-5, 100 μM, 48 h of treatment

For `NCC(N)CCC(=O)N1CCN(C(=O)c2cc(O)c(O)c(O)c2)CC1` (stereo not shown) [Compound 30a, 4,5-diamino-1-(4-(3,4,5-trihydroxybenzoyl)piperazin-1-yl)pentan-1-one], the ORACFL [1] was 0.89 ± 0.10 μmol TE/μmol, the “viability of the cells as a percentage of the untreated cells” value ([2]; mouse, 24 h, 10 μM) was 117% and the “viability of the cells as a percentage of the untreated cells” value ([2]; mouse, 24 h, 100 μM) was 96%. The “viability of the cells as a percentage of the untreated cells” value ([2]; mouse, 48 h, 10 μM) was 95%, the “viability of the cells as a percentage of the untreated cells” value ([2]; mouse, 48 h, 100 μM) was 108% and the “viability of the cells as a percentage of the untreated cells” value ([3]; rat, 24 h, 10 μM) was 116%. For the same compound, the “viability of the cells as a percentage of the untreated cells” value ([3]; rat, 24 h, 100 μM) was 140%, the “viability of the cells as a percentage of the untreated cells” value ([3]; rat, 48 h, 10 μM) was 96% and the “viability of the cells as a percentage of the untreated cells” value ([3]; rat, 48 h, 100 μM) was 113%. The “viability of the cells as a percentage of the untreated cells” value [4, 7] was 115%, the “viability of the cells as a percentage of the untreated cells” value [4, 8] was 101% and the “viability of the cells as a percentage of the untreated cells” value [4, 9] was 112%. For the same compound, the “viability of the cells as a percentage of the untreated cells” value [4, 10] was 103%.

`NCC(N)CC(=O)N1CCN(C(=O)CCn2cccc(O)c2=O)CC1` (stereo not shown) [Compound 37d, 1-(3-(4-(3,4-diaminobutanoyl)piperazin-1-yl)-3-oxopropyl)-3-hydroxypyridin-2(1H)-one] gave an ORACFL [1] of 1.21 ± 0.07 μmol TE/μmol.

Compound `Cc1c(C)c2c(c(C)c1O)CCC(C)(C(=O)O)O2` (stereo not shown) [Trolox, 6-hydroxy-2,5,7,8-tetramethylchroman-2-carboxylic acid, reference compound] has an ORACFL [1] of 1 μmol TE/μmol.

For `Cl.Cl.NCC(N)C(=O)N1CCNCC1` (stereo not shown) [Dap-Pip, reference compound], the “antioxidant capacity (ORACFL), in words” value [1] was “absence of activity”, the ORACFL [1] was 0 μmol TE/μmol and the anti-radical effect [5] was “does not show any anti-radical effect”. For the same compound, the “viability of the cells as a percentage of the untreated cells” value ([2]; bEnd.3, 10 μM, 24 h of treatment) was 123%, the “viability of the cells as a percentage of the untreated cells” value ([2]; bEnd.3, 10 μM, 48 h of treatment) was 131% and the “viability of the cells as a percentage of the untreated cells” value ([2]; bEnd.3, 100 μM, 24 h of treatment) was 103%. The “viability of the cells as a percentage of the untreated cells” value ([2]; bEnd.3, 100 μM, 48 h of treatment) was 142%, the “viability of the cells as a percentage of the untreated cells” value ([3]; PC12, 10 μM, 24 h of treatment) was 114% and the “viability of the cells as a percentage of the untreated cells” value ([3]; PC12, 10 μM, 48 h of treatment) was 110%. For the same compound, the “viability of the cells as a percentage of the untreated cells” value ([3]; PC12, 100 μM, 24 h of treatment) was 120%, the “viability of the cells as a percentage of the untreated cells” value ([3]; PC12, 100 μM, 48 h of treatment) was 102% and the “viability of the cells as a percentage of the untreated cells” value [4, 7] was 125%. For the same compound, the “viability of the cells as a percentage of the untreated cells” value [4, 8] was 113%, the “viability of the cells as a percentage of the untreated cells” value [4, 9] was 128% and the “viability of the cells as a percentage of the untreated cells” value [4, 10] was 111%.

For `NCC(N)CCC(=O)N1CCN(C(=O)CCn2cccc(O)c2=O)CC1` (stereo not shown) [Compound 37f, 1-(3-(4-(4,5-diaminopentanoyl)piperazin-1-yl)-3-oxopropyl)-3-hydroxypyridin-2(1H)-one], the “disappearance of the free scavenger to the benefit of adducts with the MGO” value [6] was “almost total disappearance of the free scavenger” and the ORACFL [1] was 1.96 ± 0.24 μmol TE/μmol.

With `NCCC(=O)N[C@@H](Cc1cnc[nH]1)C(=O)O` [Carnosine, carnosine, reference compound] the “antioxidant capacity (ORACFL), in words” value [1] was “very low activity” and the ORACFL [1] was 0.08 ± 0.05 μmol TE/μmol.
